The values that follow come from patent US9409952B2, “Peptide-compound cyclization method” (Chugai Seiyaku Kabushiki Kaisha, priority 2011, dated 2016).

SMILES strings stand for the structures. Starred links: 1 amine or outer side, 2 acyl side, 3 side chain; linkers in the order of their positions; H or OH if unused. Positions of bridges follow the written chain, without caps; N, C: chain ends. Non-standard residues stand in square brackets, D forms with d. Residues, ends and D or L forms follow the SMILES beside them. *: point of attachment. NMeF = CN[C@@H](Cc1ccccc1)C(=O)O; NMeGABA = CN(CCCC(=O)[*:2])[*:1]; NMeI = CC[C@H](C)[C@H](NC)C(=O)O; NMeβAla = CN(CCC(=O)[*:2])[*:1]; NMeL = CN[C@@H](CC(C)C)C(=O)O; NMeV = CN[C@H](C(=O)O)C(C)C; NMeA = CN[C@@H](C)C(=O)O; Piperidide = C1CCN(*)CC1; dNMeA = CN[C@H](C)C(=O)O

One series is described as follows: PAMPA (parallel artificial membrane permeability assay). The class given is in vitro ADME. To be noted: PAMPA; membrane permeation rate (Pe); 50 mM MOPSO buffer pH 6.5 with 5.0% glycocholic acid, 37° C., 18 hours; read-out: iPAMPA Pe. As for the experimental part:
4 μL of a phospholipid-organic solvent solution composed of 10% (w/v) of egg lecithin, 0.5% (w/v) of cholesterol and dodecane (all purchased from Fluka) was added to a Millipore 96-well membrane filter (hydrophobic PVDF (polyvinylidene difluoride), pore size 0.45 microm) (purchased from Millipore Japan) to make an artificial phospholipid membrane.
A DMSO solution containing the compound at a concentration of 10 mM was added in a percentage of 0.5% (v/v) to a 50 mM MOPSO buffer, pH 6.5, containing 5.0% (w/v) of glycocholic acid, and 330 μL of the mixture was added to a 96-well plate made of Teflon (donor plate). The above artificial phospholipid membrane plate was attached onto the donor plate, and 280 μL of a solution obtained by adding DMSO in a percentage of 0.5% (v/v) to a 50 mM MOPSO buffer, pH 6.5, containing 5.0% (w/w) of glycocholic acid was added onto the artificial phospholipid membrane (acceptor plate). These plates were allowed to stand at 37° C. for 18 hours, after which the concentrations of the compound in the solutions in the donor plate and the acceptor plate were measured by LC/MS or LC/UV, and the membrane permeation rate of the compound (Pe) was calculated by the following formulas (1) and (2), where t is the testing time, A is the membrane filter area, VD is the amount of the donor solution, VA is the amount of the acceptor solution, CD,t is the concentration of the compound in the donor solution at the time t, and CA,t is the concentration of the compound in the acceptor solution at the time t.
(The PAMPA barrier holds no transporters, so it reflects passive diffusion.)
As to `CC[C@H](C)[C@@H]1NC(=O)[C@H](C)N(C)C(=O)[C@H](CC(C)C)N(C)C(=O)CCCN(C)C(=O)C[C@@H](C(=O)N(C)[C@@H](Cc2ccccc2)C(=O)N[C@@H](C)C(=O)N2CCCCC2)NC(=O)[C@H](CC(C)C)N(C)C(=O)[C@H](C)N(C)C(=O)[C@H]([C@@H](C)O)NC(=O)[C@H](Cc2ccccc2)N(C)C(=O)[C@H](Cc2ccccc2)N(C)C(=O)[C@H](CC(C)C)N(C)C1=O` [DP-366] ([NMeGABA][NMeL][NMeA]I[NMeL][NMeF][NMeF]T[NMeA][NMeL]D[NMeF]A-Piperidide; lactam N-11), the Papp at 18 hours, 50 µM turned out to be 14 ×10⁻⁶ cm/s.

Consider `CC(C)C[C@@H]1NC(=O)[C@H](CC(C)C)N(C)C(=O)CCN(C)C(=O)C[C@@H](C(=O)N(C)[C@@H](Cc2ccccc2)C(=O)N[C@@H](C)C(=O)N2CCCCC2)NC(=O)[C@H](CC(C)C)N(C)C(=O)[C@H](Cc2ccccc2)NC(=O)[C@H](Cc2ccccc2)N(C)C(=O)[C@H](C)NC(=O)[C@H]([C@@H](C)O)NC(=O)[C@H](CC(C)C)N(C)C1=O` [DP-369] ([NMeβAla][NMeL]L[NMeL]TA[NMeF]F[NMeL]D[NMeF]A-Piperidide; lactam N-10), for which the Papp at 18 hours, 50 µM is 26 ×10⁻⁶ cm/s.

On to `CC[C@H](C)[C@@H]1NC(=O)[C@H](CC(C)C)N(C)C(=O)[C@H](Cc2ccccc2)N(C)C(=O)[C@H]([C@@H](C)O)NC(=O)[C@H](C)N(C)C(=O)CCCN(C)C(=O)C[C@@H](C(=O)N(C)[C@@H](Cc2ccccc2)C(=O)N[C@@H](C)C(=O)N2CCCCC2)NC(=O)[C@H](CC(C)C)N(C)C(=O)[C@H](Cc2ccccc2)N(C)C(=O)[C@H](CC(C)C)N(C)C1=O` [DP-373] ([NMeGABA][NMeA]T[NMeF][NMeL]I[NMeL][NMeF][NMeL]D[NMeF]A-Piperidide; lactam N-10), for which the Papp at 18 hours, 50 µM turned out to be 9.2 ×10⁻⁶ cm/s.

On to `CC[C@H](C)[C@@H]1NC(=O)[C@H](C)N(C)C(=O)[C@H]([C@@H](C)O)NC(=O)[C@H](CC(C)C)N(C)C(=O)[C@H](Cc2ccccc2)NC(=O)[C@H](C(C)C)N(C)C(=O)[C@H](CC(C)C)N(C)C(=O)[C@H](C)N(C)C(=O)C[C@@H](C(=O)N(C)[C@@H](Cc2ccccc2)C(=O)N[C@@H](C)C(=O)N2CCCCC2)NC(=O)[C@H](CC(C)C)N(C)C1=O` [DP-376] ([NMeA][NMeL][NMeV]F[NMeL]T[NMeA]I[NMeL]D[NMeF]A-Piperidide; lactam N-10), for which the Papp at 18 hours, 50 µM was determined as 29 ×10⁻⁶ cm/s.

Regarding `CC(C)C[C@@H]1NC(=O)[C@H](CC(C)C)N(C)C(=O)[C@H](C)N(C)C(=O)C[C@@H](C(=O)N(C)[C@@H](Cc2ccccc2)C(=O)N[C@@H](C)C(=O)N2CCCCC2)NC(=O)[C@H]([C@@H](C)O)NC(=O)[C@H](CC(C)C)N(C)C(=O)[C@H](Cc2ccccc2)NC(=O)[C@H](Cc2ccccc2)N(C)C(=O)[C@H](CC(C)C)N(C)C1=O` [DP-387] ([NMeA][NMeL]L[NMeL][NMeF]F[NMeL]TD[NMeF]A-Piperidide; lactam N-9), the Papp at 18 hours, 50 µM was found to be 2.8 ×10⁻⁶ cm/s.

In the case of `CC(C)[C@@H]1NC(=O)[C@H](Cc2ccccc2)N(C)C(=O)[C@H](C)N(C)C(=O)[C@H]([C@@H](C)O)NC(=O)CNC(=O)[C@H](C)N(C)C(=O)[C@H](Cc2ccccc2)NC(=O)[C@H](C)N(C)C(=O)C[C@@H](C(=O)N(C)[C@@H](Cc2ccccc2)C(=O)N(C)[C@@H](Cc2ccccc2)C(=O)N[C@@H](C)C(=O)N2CCCCC2)NC(=O)[C@H](C(C)C)N(C)C1=O` [DP-393] ([NMeA]F[NMeA]GT[NMeA][NMeF]V[NMeV]D[NMeF][NMeF]A-Piperidide; lactam N-10), the Papp at 18 hours, 50 µM came out at 18 ×10⁻⁶ cm/s.

For the compound `CC[C@H](C)[C@@H]1NC(=O)[C@H](CC(C)C)N(C)C(=O)[C@H](CC(C)C)N(C)C(=O)[C@H](C)N(C)C(=O)[C@H]([C@@H](C)O)NC(=O)[C@H](Cc2ccccc2)N(C)C(=O)[C@@H](C)N(C)C(=O)C[C@@H](C(=O)N(C)[C@@H](Cc2ccccc2)C(=O)N(C)[C@@H](Cc2ccccc2)C(=O)N[C@@H](C)C(=O)N2CCCCC2)NC(=O)[C@H](C(C)C)N(C)C1=O` [DP-399] ([dNMeA][NMeF]T[NMeA][NMeL][NMeL]I[NMeV]D[NMeF][NMeF]A-Piperidide; lactam N-9), the Papp at 18 hours, 50 µM turned out to be 0.89 ×10⁻⁶ cm/s.

As for `CC[C@H](C)[C@@H]1NC(=O)[C@H](Cc2ccccc2)N(C)C(=O)[C@H](C)N(C)C(=O)[C@H](CC(C)C)N(C)C(=O)[C@H](Cc2ccccc2)N(C)C(=O)CCN(C)C(=O)C[C@@H](C(=O)N(C)[C@@H](Cc2ccccc2)C(=O)N(C)[C@@H](Cc2ccccc2)C(=O)N[C@@H](C)C(=O)N2CCCCC2)NC(=O)[C@H]([C@@H](C)O)NC(=O)[C@H](CC(C)C)N(C)C(=O)[C@H](CC(C)C)N(C)C1=O` [DP-499] ([NMeβAla][NMeF][NMeL][NMeA][NMeF]I[NMeL][NMeL]TD[NMeF][NMeF]A-Piperidide; lactam N-10), the Papp at 18 hours, 50 µM was found to be 0.31 ×10⁻⁶ cm/s.

On to `CC[C@H](C)[C@@H]1NC(=O)[C@H](C)N(C)C(=O)[C@H]([C@@H](C)O)NC(=O)[C@H](CC(C)C)N(C)C(=O)[C@H](Cc2ccccc2)N(C)C(=O)[C@H](C)N(C)C(=O)[C@@H](C(C)C)NC(=O)C[C@@H](C(=O)N(C)[C@@H](Cc2ccccc2)C(=O)N(C)[C@@H](Cc2ccccc2)C(=O)N[C@@H](C)C(=O)N2CCCCC2)NC(=O)[C@H](C(C)C)N(C)C(=O)[C@H](CC(C)C)N(C)C1=O` [DP-510] ([dV][NMeA][NMeF][NMeL]T[NMeA]I[NMeL][NMeV]D[NMeF][NMeF]A-Piperidide; lactam N-10), for which the Papp at 18 hours, 50 µM was 2.2 ×10⁻⁶ cm/s.

Take `CC[C@H](C)[C@H](NC(=O)[C@H](C)N(C)C(=O)[C@@H](NC(=O)[C@H](Cc1ccccc1)N(C)C(=O)[C@H](CC(C)C)N(C)C(=O)[C@@H]1CC(=O)N[C@H](C)C(=O)N[C@@H](C(C)C)C(=O)N(C)[C@@H](Cc2ccccc2)C(=O)N(C)[C@@H](CC(C)C)C(=O)N(C)[C@@H](C)C(=O)N[C@@H]([C@@H](C)O)C(=O)N[C@@H](Cc2ccccc2)C(=O)N1)C(C)C)C(=O)N1CCCCC1` [DP-570] ([dA]V[NMeF][NMeL][NMeA]TFD[NMeL][NMeF]V[NMeA]I-Piperidide; lactam N-8): the Papp at 18 hours, 50 µM stood at 2.1 ×10⁻⁶ cm/s.

Take `CC(C)C[C@H]1C(=O)N(C)[C@@H](Cc2ccccc2)C(=O)N(C)[C@@H](CC(C)C)C(=O)N[C@H](C(=O)N(C)[C@@H](Cc2ccccc2)C(=O)N[C@@H](Cc2ccccc2)C(=O)N2CCCCC2)CC(=O)N[C@H](C(C)C)C(=O)N[C@@H](C)C(=O)N[C@@H]([C@@H](C)O)C(=O)N(C)[C@@H](C)C(=O)N[C@@H](Cc2ccccc2)C(=O)N1C` [DP-577] ([dV]AT[NMeA]F[NMeL][NMeF][NMeL]D[NMeF]F-Piperidide; lactam N-9): the Papp at 18 hours, 50 µM amounted to 0.94 ×10⁻⁶ cm/s.

Take `CC[C@H](C)[C@H](NC(=O)[C@H](C)N(C)C(=O)[C@@H]1CC(=O)N(C)[C@H](C)C(=O)N(C)[C@@H](C)C(=O)N(C)[C@@H](Cc2ccccc2)C(=O)N(C)[C@@H](CC(C)C)C(=O)N[C@@H]([C@@H](C)O)C(=O)N(C)[C@@H](C)C(=O)N(C)[C@@H](CC(C)C)C(=O)N[C@@H](CO)C(=O)N1)C(=O)N1CCC[C@H]1C(=O)N[C@H](C(=O)N[C@@H](C)C(=O)N1CCCCC1)C(C)C` [DP-578] ([dNMeA][NMeA][NMeF][NMeL]T[NMeA][NMeL]SD[NMeA]IPVA-Piperidide; lactam N-9): the Papp at 18 hours, 50 µM was determined as 3.4 ×10⁻⁶ cm/s.

Staying with this series, now noted: membrane permeation rate (Pe); 50 mM MOPSO buffer pH 6.5 with 5.0% glycocholic acid, 37° C., 18 hours.
As to `CC[C@H](C)[C@H]1C(=O)N[C@@H](C(C)C)C(=O)N(C)[C@@H](Cc2ccccc2)C(=O)N[C@@H](CC(C)C)C(=O)N(C)[C@@H](Cc2ccccc2)C(=O)N[C@H](C(=O)N(C)[C@@H](Cc2ccccc2)C(=O)N[C@@H](C)C(=O)N[C@H](C(=O)N[C@@H](Cc2ccccc2)C(=O)N2CCCCC2)[C@@H](C)O)CC(=O)N[C@@H](C)C(=O)N[C@@H](CC(C)C)C(=O)N1C` [DP-572] (AL[NMeI]V[NMeF]L[NMeF]D[NMeF]ATF-Piperidide; lactam N-8), the “iPAMPA Pe” value is 1.0E−07.
